Data reported in patent US11331369B2, “Endoparasitic depsipeptides” (Zoetis Services LLC, priority 2017, dated 2022).

test system: microfilariae of Dirofilaria immitis; experiment: Dirofilaria immitis, Microfilaria (DiMF) In vitro Assay; assay type: cell-based; details: 72 h, read-out: DiMF Minimum Effective Dose (MED), approximately 72 hours incubation, microfilariae assessed for survival or paralysis

For `CC(C)C[C@H]1C(=O)O[C@H](Cc2ccc(Cn3ccc(Br)cc3=O)cc2)C(=O)N(C)[C@@H](CC(C)C)C(=O)O[C@H](C)C(=O)N(C)[C@@H](CC(C)C)C(=O)O[C@H](Cc2ccc(Cn3ccc(Br)cc3=O)cc2)C(=O)N(C)[C@@H](CC(C)C)C(=O)O[C@H](C)C(=O)N1C` [Example 9-20, (3S,6R,9S,12R,15S,18R,21S,24R)-6,18-bis(4-((4-bromo-2-oxopyridin-1 (2H)-yl)methyl)benzyl)-3,9,15,21-tetraisobutyl-4,10,12,16,22,24-hexamethyl-1,7,13,19-tetraoxa-4,10,16,22-tetraazacyclotetracosan-2,5,8,11,14,17,20,23-octaone], which minimal effective concentration is on record?
Its minimal effective concentration is 0.01 to 0.1 µM.

`Cc1cnn(Cc2ccc(C[C@H]3OC(=O)[C@H](CC(C)C)N(C)C(=O)[C@@H](C)OC(=O)[C@H](CC(C)C)N(C)C(=O)[C@@H](Cc4ccc(Cn5cc(-c6ccccc6)cn5)cc4)OC(=O)[C@H](CC(C)C)N(C)C(=O)[C@@H](C)OC(=O)[C@H](CC(C)C)N(C)C3=O)cc2)c1` [Example 1a-19, (3S,6R,9S,12R,15S,18R,21S,24R)-3,9,15,21-tetraisobutyl-4,6,10,16,18,22-hexamethyl-12-(4-((4-methyl-1H-pyrazol-1-yl)methyl)benzyl)-24-(4-((4-phenyl-1H-pyrazol-1-yl)methyl)benzyl)-1,7,13,19-tetraoxa-4,10,16,22-tetraazacyclotetracosan-2,5,8,11,14,17,20,23-octaone] was tested. Which minimal effective concentration did it give?
Its minimal effective concentration is 0.01 to 0.1 µM.

For `Cc1cn(Cc2ccc(C[C@H]3OC(=O)[C@H](CC(C)C)N(C)C(=O)[C@@H](C)OC(=O)[C@H](CC(C)C)N(C)C(=O)[C@@H](Cc4ccc(Cn5cnc(C)c5)cc4)OC(=O)[C@H](CC(C)C)N(C)C(=O)[C@@H](C)OC(=O)[C@H](CC(C)C)N(C)C3=O)cc2)cn1` [Example 6-14, (3S,6R,9S,12R,15S,18R,21S,24R)-3,9,15,21-tetraisobutyl-4,6,10,16,18,22-hexamethyl-12,24-bis(4-((4-methyl-1H-imidazol-1-yl)methyl)benzyl)-1,7,13,19-tetraoxa-4,10,16,22-tetraazacyclotetracosan-2,5,8,11,14,17,20,23-octaone], which minimal effective concentration is on record?
The minimal effective concentration was 0.01 to 0.1 µM.

Which minimal effective concentration does the source give for `CC(C)C[C@H]1C(=O)O[C@H](Cc2ccc(Cn3nccc3Cl)cc2)C(=O)N(C)[C@@H](CC(C)C)C(=O)O[C@H](C)C(=O)N(C)[C@@H](CC(C)C)C(=O)O[C@H](Cc2ccc(Cn3ccc(Cl)n3)cc2)C(=O)N(C)[C@@H](CC(C)C)C(=O)O[C@H](C)C(=O)N1C` [Example 1a-46, (3S,6R,9S,12R,15S,18R,21S,24R)-6-(4-((3-chloro-1H-pyrazol-1-yl)methyl)benzyl)-18-(4-((5-chloro-1H-pyrazol-1-yl)methyl)benzyl)-3,9,15,21-tetraisobutyl-4,10,12,16,22,24-hexamethyl-1,7,13,19-tetraoxa-4,10,16,22-tetraazacyclotetracosan-2,5,8,11,14,17,20,23-octaone] here?
Its minimal effective concentration is 0.001 to 0.01 µM.

How did the minimal effective concentration turn out when `CC(C)C[C@H]1C(=O)O[C@H](Cc2ccc(Cn3nc(CO)cc3CO)cc2)C(=O)N(C)[C@@H](CC(C)C)C(=O)O[C@H](C)C(=O)N(C)[C@@H](CC(C)C)C(=O)O[C@H](Cc2ccc(Cn3nc(C#N)cc3C#N)cc2)C(=O)N(C)[C@@H](CC(C)C)C(=O)O[C@H](C)C(=O)N1C` [Example 1a-2, 1-(4-(((2R,5S,8R,11S,14R,17S,20R,23S)-14-(4-((3,5-bis(hydroxymethyl)-1H-pyrazol-1-yl)methyl)benzyl)-5,11,17,23-tetraisobutyl-4,8,10,16,20,22-hexamethyl-3,6,9,12,15,18,21,24-octaoxo-1,7,13,19-tetraoxa-4,10,16,22-tetraazacyclotetracosan-2-yl)methyl)benzyl)-1H-pyrazole-3,5-dicarbonitrile] was run?
The minimal effective concentration was 0.001 to 0.01 µM.

Which minimal effective concentration does the source give for `Cc1ccn(Cc2ccc(C[C@H]3OC(=O)[C@H](CC(C)C)N(C)C(=O)[C@@H](C)OC(=O)[C@H](CC(C)C)N(C)C(=O)[C@@H](Cc4ccc(Cn5ccc(C)cc5=O)cc4)OC(=O)[C@H](CC(C)C)N(C)C(=O)[C@@H](C)OC(=O)[C@H](CC(C)C)N(C)C3=O)cc2)c(=O)c1` [Example 9-27, (3S,6R,9S,12R,15S,18R,21S,24R)-3,9,15,21-tetraisobutyl-4,6,10,16,18,22-hexamethyl-12,24-bis(4-((4-methyl-2-oxopyridin-1 (2H)-yl)methyl)benzyl)-1,7,13,19-tetraoxa-4,10,16,22-tetraazacyclotetracosan-2,5,8,11,14,17,20,23-octaone] here?
The minimal effective concentration was 0.01 to 0.1 µM.

`Cc1nn(Cc2ccc(C[C@H]3OC(=O)[C@H](CC(C)C)N(C)C(=O)[C@@H](C)OC(=O)[C@H](CC(C)C)N(C)C(=O)[C@@H](Cc4ccc(Cn5cc(C#N)c(C)n5)cc4)OC(=O)[C@H](CC(C)C)N(C)C(=O)[C@@H](C)OC(=O)[C@H](CC(C)C)N(C)C3=O)cc2)cc1C#N` [Example 1b-135, 1,1′-(((((2R,5S,8R,11S,14R,17S,20R,23S)-5,11,17,23-tetraisobutyl-4,8,10,16,20,22-hexamethyl-3,6,9,12,15,18,21,24-octaoxo-1,7,13,19-tetraoxa-4,10,16,22-tetraazacyclotetracosane-2,14-diyl)bis(methylene))bis(4,1-phenylene))bis(methylene))bis(3-methyl-1H-pyrazole-4-carbonitrile)] was tested. Which minimal effective concentration did it give?
The minimal effective concentration was 0.001 to 0.01 µM.

`CC(C)C[C@H]1C(=O)O[C@H](Cc2ccc(Cn3ccnc3)cc2)C(=O)N(C)[C@@H](CC(C)C)C(=O)O[C@H](C)C(=O)N(C)[C@@H](CC(C)C)C(=O)O[C@H](Cc2ccccc2)C(=O)N(C)[C@@H](CC(C)C)C(=O)O[C@H](C)C(=O)N1C` [Example 8-2, (3S,6R,9S,12R,15S,18R,21S,24R)-6-benzyl-18-[[4-(imidazol-1-ylmethyl)phenyl]methyl]-3,9,15,21-tetraisobutyl-4,10,12,16,22,24-hexamethyl-1,7,13,19-tetraoxa-4,10,16,22-tetrazacyclotetracosane-2,5,8,11,14,17,20,23-octaone] was tested. Which minimal effective concentration did it give?
Its minimal effective concentration is 0.01 to 0.1 µM.

How did the minimal effective concentration turn out when `CC(C)C[C@H]1C(=O)O[C@H](Cc2ccc(Cn3cc(C(C)(C)C)cn3)cc2)C(=O)N(C)[C@@H](CC(C)C)C(=O)O[C@H](C)C(=O)N(C)[C@@H](CC(C)C)C(=O)O[C@H](Cc2ccccc2)C(=O)N(C)[C@@H](CC(C)C)C(=O)O[C@H](C)C(=O)N1C` [Example 2-8, (3S,6R,9S,12R,15S,18R,21S,24R)-6-benzyl-18-[[4-[(4-tert-butylpyrazol-1-yl)methyl]phenyl]methyl]-3,9,15,21-tetraisobutyl-4,10,12,16,22,24-hexamethyl-1,7,13,19-tetraoxa-4,10,16,22-tetrazacyclotetracosane-2,5,8,11,14,17,20,23-octaone] was run?
The minimal effective concentration was 0.01 to 0.1 µM.

How did the minimal effective concentration turn out when `CC(C)C[C@H]1C(=O)O[C@H](Cc2ccc(CN3CCS(=O)(=O)c4ccccc43)cc2)C(=O)N(C)[C@@H](CC(C)C)C(=O)O[C@H](C)C(=O)N(C)[C@@H](CC(C)C)C(=O)O[C@H](Cc2ccc(CN3CCS(=O)(=O)c4ccccc43)cc2)C(=O)N(C)[C@@H](CC(C)C)C(=O)O[C@H](C)C(=O)N1C` [Example 10-33, (3S,6R,9S,12R,15S,18R,21S,24R)-6,18-bis(4-((1,1-dioxido-2,3-dihydro-4H-benzo[b][1,4]thiazin-4-yl)methyl)benzyl)-3,9,15,21-tetraisobutyl-4,10,12,16,22,24-hexamethyl-1,7,13,19-tetraoxa-4, 10,16,22-tetraazacyclotetracosan-2,5,8,11,14,17,20,23-octaone] was run?
Its minimal effective concentration is 0.01 to 0.1 µM.

How did the minimal effective concentration turn out when `CCOC(=O)c1cnn(Cc2ccc(C[C@H]3OC(=O)[C@H](CC(C)C)N(C)C(=O)[C@@H](C)OC(=O)[C@H](CC(C)C)N(C)C(=O)[C@@H](Cc4ccc(Cn5cc(C(=O)OCC)cn5)cc4)OC(=O)[C@H](CC(C)C)N(C)C(=O)[C@@H](C)OC(=O)[C@H](CC(C)C)N(C)C3=O)cc2)c1` [Example 1b-39, diethyl 1,1′-(((((2R,5S,8R,11S,14R,17S,20R,23S)-5,11,17,23-tetraisobutyl-4,8,10,16,20,22-hexamethyl-3,6,9,12,15,18,21,24-octaoxo-1,7,13,19-tetraoxa-4,10,16,22-tetraazacyclotetracosane-2,14-diyl)bis(methylene))bis(4,1-phenylene))bis(methylene))bis(1H-pyrazole-4-carboxylate)] was run?
The minimal effective concentration was 0.01 to 0.1 µM.

For `CC(C)C[C@H]1C(=O)O[C@H](Cc2ccc(Cn3cc(/C(N)=N/O)cn3)cc2)C(=O)N(C)[C@@H](CC(C)C)C(=O)O[C@H](C)C(=O)N(C)[C@@H](CC(C)C)C(=O)O[C@H](Cc2ccc(Cn3cc(C(N)=NO)cn3)cc2)C(=O)N(C)[C@@H](CC(C)C)C(=O)O[C@H](C)C(=O)N1C` [Example 1b-22, N′-hydroxy-1-[[4-[[(2R,5S,8R,11S,14R,17S,20R,23S)-14-[[4-[[4-[(Z)—N′-hydroxycarbamimidoyl]pyrazol-1-yl]methyl]phenyl]methyl]-5,11,17,23-tetraisobutyl-4,8,10,16,20,22-hexamethyl-3,6,9,12,15,18,21,24-octaoxo-1,7,13,19-tetraoxa-4,10,16,22-tetrazacyclotetracos-2-yl]methyl]phenyl]methyl]pyrazole-4-carboxamidine], which minimal effective concentration is on record?
The minimal effective concentration was 0.01 to 0.1 µM.

For `CC(C)C[C@H]1C(=O)O[C@H](Cc2ccc(Cn3ccnc3CO)cc2)C(=O)N(C)[C@@H](CC(C)C)C(=O)O[C@H](C)C(=O)N(C)[C@@H](CC(C)C)C(=O)O[C@H](Cc2ccc(Cn3ccnc3CO)cc2)C(=O)N(C)[C@@H](CC(C)C)C(=O)O[C@H](C)C(=O)N1C` [Example 6-16, (3S,6R,9S,12R,15S,18R,21S,24R)-6,18-bis(4-((2-(hydroxymethyl)-1H-imidazol-1-yl)methyl)benzyl)-3,9,15,21-tetraisobutyl-4,10,12,16,22,24-hexamethyl-1,7,13,19-tetraoxa-4,10,16,22-tetraazacyclotetracosan-2,5,8,11,14,17,20,23-octaone], which minimal effective concentration is on record?
Its minimal effective concentration is 0.001 to 0.01 µM.

Which minimal effective concentration does the source give for `CC(C)C[C@H]1C(=O)O[C@H](Cc2cccc(Cn3nc(C#N)cc3C#N)c2)C(=O)N(C)[C@@H](CC(C)C)C(=O)O[C@H](C)C(=O)N(C)[C@@H](CC(C)C)C(=O)O[C@H](Cc2cccc(Cn3nc(C#N)cc3C#N)c2)C(=O)N(C)[C@@H](CC(C)C)C(=O)O[C@H](C)C(=O)N1C` [Example 4-14, 1,1′-(((((2R,5S,8R,11S,14R,17S,20R,23S)-5, 11,17,23-tetraisobutyl-4,8,10,16,20,22-hexamethyl-3,6,9,12,15,18,21,24-octaoxo-1,7,13,19-tetraoxa-4,10,16,22-tetraazacyclotetracosane-2,14-diyl)bis(methylene))bis(3,1-phenylene))bis(methylene))bis(1H-pyrazole-3,5-dicarbonitrile)] here?
Its minimal effective concentration is 0.001 to 0.01 µM.
